In article PMC9598367, “Discovery and Preliminary Structure-Activity Investigation of 3-Substituted-1H-imidazol-5-yl-1H-indoles with In Vitro Activity towards Methicillin-Resistant Staphylococcus aureus” (Antibiotics, 2022):
Converted amounts (≈) assume the structure as drawn.

Tested on: Staphylococcus aureus ATCC25923
Test: MIC by broth dilution, S. aureus ATCC25923
Type: cell-based
Conditions: Staphylococcus aureus ATCC25923; mean (n = 3)
Protocol: The susceptibility of S. aureus (ATCC25923) to antibiotics and compounds was determined in microplates using the standard broth dilution method in accordance with the recommendations of the Comité de l’AntibioGramme de la Société Française de Microbiologie (CA-SFM) as previously described. Briefly, the minimal inhibitory concentrations (MICs) were determined with an inoculum of 10^5 CFU in 200 µL of Mueller-Hinton broth (MHB) containing two-fold serial dilutions of each drug. […] To determine all MICs, the measurements were independently repeated in triplicate.
`O=C(N[C@H](CO)[C@H](O)c1ccc([N+](=O)[O-])cc1)C(Cl)Cl` [chloramphenicol, reference compound] showed an MIC of 0.5 to 1 µg/mL (≈ 1.55 to 3.09 µM).
`[H]/N=C(/N)N[C@H]1[C@H](O)[C@@H](O)[C@H](O[C@@H]2O[C@@H](C)[C@](O)(C=O)[C@H]2O[C@@H]2O[C@@H](CO)[C@H](O)[C@@H](O)[C@@H]2NC)[C@@H](N/C(N)=N\[H])[C@@H]1O` [streptomycin, reference compound] showed an MIC of 12.5 µg/mL (≈ 21.5 µM).

Tested on: Staphylococcus aureus ATCC43300 (MRSA)
Test: MIC, MRSA ATCC43300 (CO-ADD protocol)
Type: cell-based
Conditions: Staphylococcus aureus, read-out: MIC (µg/mL) MRSA
Excerpt: Additional antimicrobial evaluation against Staphylococcus aureus MRSA (ATCC43300), Pseudomonas aeruginosa (ATCC27853), Escherichia coli (ATCC25922), Klebsiella pneumoniae (ATCC700603), Acinetobacter baumannii (ATCC19606), Candida albicans (ATCC90028), and Cryptococcus neoformans (ATCC208821) was undertaken at the Community for Open Antimicrobial Drug Discovery at The University of Queensland (Australia) according to their standard protocols. For antimicrobial assays, the tested strains were cultured in either Luria broth (LB) (In Vitro Technologies, USB75852, Noble Park North, Australia), nutrient broth (NB) (Becton Dickson, 234000, Macquarie Park, Australia), or cation-adjusted MHB at 37 °C overnight. A sample of culture was then diluted 40-fold in fresh MHB and incubated at 37 °C for 1.5−2 h. The compounds were serially diluted 2-fold across the wells of 96-well plates (Corning 3641, Tewksbury, MA, USA, nonbinding surface), with compound concentrations ranging from 0.015 to 64 μg/mL, plated in duplicate. The resultant mid log phase cultures were diluted to the final concentration of 1 × 10^6 CFU/mL; then, 50 μL was added to each well of the compound containing plates giving a final compound concentration range of 0.008 to 32 μg/mL and a cell density of 5 × 10^5 CFU/mL. All plates were then covered and incubated at 37 °C for 18 h. Resazurin was added at 0.001% final concentration to each well and incubated for 2 h before MICs were read by eye.
(§1) Colistin and vancomycin were used as positive bacterial inhibitor standards for Gram-negative and Gram-positive bacteria, respectively. Fluconazole was used as a positive fungal inhibitor standard for C. albicans and C. neoformans. The antibiotics were provided in 4 concentrations, with 2 above and 2 below its MIC value, and plated into the first 8 wells of column 23 of the 384-well NBS plates. The quality control (QC) of the assays was determined by the antimicrobial controls and the Z′-factor (using positive and negative controls).
Molecule `CN[C@H](CC(C)C)C(=O)N[C@H]1C(=O)N[C@@H](CC(N)=O)C(=O)N[C@H]2C(=O)N[C@H]3C(=O)N[C@H](C(=O)N[C@H](C(=O)O)c4cc(O)cc(O)c4-c4cc3ccc4O)[C@H](O)c3ccc(c(Cl)c3)Oc3cc2cc(c3O[C@@H]2O[C@H](CO)[C@@H](O)[C@H](O)[C@H]2O[C@H]2C[C@](C)(N)[C@H](O)[C@H](C)O2)Oc2ccc(cc2Cl)[C@H]1O` [vancomycin, reference compound] has an MIC of 1 µg/mL (≈ 0.69 µM).

Same assay, conditions: result in words
In the case of `Fc1ccc2[nH]cc(-c3cncn3CCc3ccccc3)c2c1` [Compound 3, 5-Fluoro-3-(1-phenethyl-1H-imidazol-5-yl)-1H-indole], the “anti-MRSA activity (in words)” value is reported as “devoid of activity”.

Tested on: Cryptococcus neoformans ATCC208821
Test: Antifungal MIC, C. neoformans
Type: cell-based
Conditions: Cryptococcus neoformans ATCC208821; mean (n = 2)
Protocol: For the antifungal assay, fungi strains were cultured for 3 days on yeast extract-peptone dextrose (YPD) agar at 30 °C. A yeast suspension of 1 × 10^6 to 5 × 10^6 CFU/mL was prepared from five colonies. These stock suspensions were diluted with yeast nitrogen base (YNB) (Becton Dickinson, 233520) broth to a final concentration of 2.5 × 10^3 CFU/mL. The compounds were serially diluted 2-fold across the wells of 96-well plates (Corning 3641, nonbinding surface), with compound concentrations ranging from 0.015 to 64 μg/mL and final volumes of 50 μL, plated in duplicate. Then, 50 μL of the fungi suspension that was previously prepared in YNB broth to the final concentration of 2.5 × 10^3 CFU/mL was added to each well of the compound-containing plates, giving a final compound concentration range of 0.008 to 32 μg/mL. Plates were covered and incubated at 35 °C for 36 h without shaking. C. albicans MICs were determined by measuring the absorbance at OD530. For C. neoformans, resazurin was added at 0.006% final concentration to each well and incubated for a further 3 h before MICs were determined by measuring the absorbance at OD570–600.
as §1
In the case of `OC(Cn1cncn1)(Cn1cncn1)c1ccc(F)cc1F` [fluconazole, reference compound], the MIC is reported as 8 µg/mL (≈ 26.1 µM).

Tested on: human red blood cells
Test: Hemolytic assay
Type: cell-based
Conditions: concentration at 10% hemolytic activity on human red blood cells; mean (n = 2)
Protocol: Human whole blood was washed three times with 3 volumes of 0.9% NaCl and then resuspended in same to a concentration of 0.5 × 10^8 cells/mL, as determined by manual cell count in a Neubauer hemocytometer. The washed cells were then added to the 384-well compound-containing plates for a final volume of 50 μL. After a 10 min shake on a plate shaker the plates were then incubated for 1 h at 37 °C. After incubation, the plates were centrifuged at 1000 g for 10 min to pellet cells and debris, 25 μL of the supernatant was then transferred to a polystyrene 384-well assay plate. Hemolysis was determined by measuring the supernatant absorbance at […] (OD405). The absorbance was measured using a Tecan M1000 Pro monochromator plate reader. HC10 and HC50 (concentration at 10% and 50% hemolysis, respectively) were calculated by curve fitting the inhibition values vs. log(concentration) using a sigmoidal dose–response function with variable fitting values for top, bottom and slope.
With Melittin [reference compound] the “HC10” value was 2.7 µg/mL.

Tested on: not given
Test: not given
Conditions: not given
In the case of `Fc1ccc2[nH]cc(-c3cncn3CCc3ccccc3)c2c1` [Compound 3, 5-Fluoro-3-(1-phenethyl-1H-imidazol-5-yl)-1H-indole], the melting point is reported as 127 to 130 °C.
For `COc1ccc(CCn2cncc2-c2c[nH]c3ccc(OC)cc23)cc1` [Compound 71, 5-Methoxy-3-(1-(4-methoxyphenethyl)-1H-imidazol-5-yl)-1H-indole], the melting point was 48 to 49 °C.
`COc1ccc(CCn2cncc2-c2c[nH]c3cc(OC)ccc23)cc1` [Compound 72, 6-Methoxy-3-(1-(4-methoxyphenethyl)-1H-imidazol-5-yl)-1H-indole] gave a melting point of 45 to 46 °C.
Molecule `Fc1cccc2[nH]cc(-c3cncn3Cc3c[nH]c4ccccc34)c12` [Compound 73, 3-(1-((1H-Indol-3-yl)methyl)-1H-imidazol-5-yl)-4-fluoro-1H-indole] has a melting point of 164 to 165 °C.
`Fc1cccc2c(-c3cncn3Cc3c[nH]c4ccccc34)c[nH]c12` [Compound 74, 3-(1-((1H-Indol-3-yl)methyl)-1H-imidazol-5-yl)-7-fluoro-1H-indole] gave a melting point of 186 to 187 °C.
`Clc1cccc2[nH]cc(-c3cncn3Cc3c[nH]c4ccccc34)c12` [Compound 75, 3-(1-((1H-Indol-3-yl)methyl)-1H-imidazol-5-yl)-4-chloro-1H-indole] showed a melting point of 195 to 196 °C.
Work on `Clc1ccc2[nH]cc(-c3cncn3Cc3c[nH]c4ccccc34)c2c1` [Compound 76, 3-(1-((1H-Indol-3-yl)methyl)-1H-imidazol-5-yl)-5-chloro-1H-indole] yielded a melting point of 107 to 108 °C.
`Clc1cccc2c(-c3cncn3Cc3c[nH]c4ccccc34)c[nH]c12` [Compound 77, 3-(1-((1H-Indol-3-yl)methyl)-1H-imidazol-5-yl)-7-chloro-1H-indole] showed a melting point of 165 to 166 °C.
`Brc1cccc2[nH]cc(-c3cncn3Cc3c[nH]c4ccccc34)c12` [Compound 78, 3-(1-((1H-Indol-3-yl)methyl)-1H-imidazol-5-yl)-4-bromo-1H-indole] showed a melting point of 201 to 202 °C.
With `COc1ccc2[nH]cc(-c3cncn3Cc3c[nH]c4ccccc34)c2c1` [Compound 79, 3-(1-((1H-Indol-3-yl)methyl)-1H-imidazol-5-yl)-5-methoxy-1H-indole] the melting point was 97 to 98 °C.
Work on `COc1ccc2c(-c3cncn3Cc3c[nH]c4ccccc34)c[nH]c2c1` [Compound 80, 3-(1-((1H-Indol-3-yl)methyl)-1H-imidazol-5-yl)-6-methoxy-1H-indole] yielded a melting point of 95 to 96 °C.
In the case of `Fc1cccc2[nH]cc(-c3cncn3CCc3c[nH]c4ccccc34)c12` [Compound 81, 3-(1-(2-(1H-Indol-3-yl)ethyl)-1H-imidazol-5-yl)-4-fluoro-1H-indole], the melting point is reported as over 230 °C.
In the case of `Fc1cccc2c(-c3cncn3CCc3c[nH]c4ccccc34)c[nH]c12` [Compound 82, 3-(1-(2-(1H-Indol-3-yl)ethyl)-1H-imidazol-5-yl)-7-fluoro-1H-indole], the melting point is reported as over 230 °C.
Work on `Clc1ccc2[nH]cc(-c3cncn3CCc3c[nH]c4ccccc34)c2c1` [Compound 84, 3-(1-(2-(1H-Indol-3-yl)ethyl)-1H-imidazol-5-yl)-5-chloro-1H-indole] yielded a melting point of 70 to 71 °C.
`Brc1cccc2[nH]cc(-c3cncn3CCc3c[nH]c4ccccc34)c12` [Compound 86, 3-(1-(2-(1H-Indol-3-yl)ethyl)-1H-imidazol-5-yl)-4-bromo-1H-indole] showed a melting point of over 230 °C.
`COc1ccc2[nH]cc(-c3cncn3CCc3c[nH]c4ccccc34)c2c1` [Compound 87, 3-(1-(2-(1H-Indol-3-yl)ethyl)-1H-imidazol-5-yl)-5-methoxy-1H-indole] gave a melting point of 152 to 153 °C.
With `COc1ccc2c(-c3cncn3CCc3c[nH]c4ccccc34)c[nH]c2c1` [Compound 88, 3-(1-(2-(1H-Indol-3-yl)ethyl)-1H-imidazol-5-yl)-6-methoxy-1H-indole] the melting point was 81 to 82 °C.
`CCCCCn1cncc1-c1c[nH]c2c(Cl)cccc12` [Compound 93, 7-Chloro-3-(1-pentyl-1H-imidazol-5-yl)-1H-indole] showed a melting point of 122 to 123 °C.
In the case of `CCCCCn1cncc1-c1c[nH]c2cccc(Br)c12` [Compound 94, 4-Bromo-3-(1-pentyl-1H-imidazol-5-yl)-1H-indole], the melting point is reported as 207 to 208 °C.
Molecule `c1ccc(Cn2cncc2-c2ccccc2)cc1` [Compound 103, 1-Benzyl-5-phenyl-1H-imidazole] has a melting point of 99 to 100 °C.
`COc1ccc(-c2cncn2Cc2ccccc2)cc1` [Compound 104, 1-Benzyl-5-(4-methoxyphenyl)-1H-imidazole] showed a melting point of 83 to 84 °C.
In the case of `COc1ccc(-c2cncn2Cc2c[nH]c3ccccc23)cc1` [Compound 112, 3-((5-(4-Methoxyphenyl)-1H-imidazol-1-yl)methyl)-1H-indole], the melting point is reported as 152 to 153 °C.
Molecule `c1ccc(-c2cncn2CCc2c[nH]c3ccccc23)cc1` [Compound 113, 3-(2-(5-Phenyl-1H-imidazol-1-yl)ethyl)-1H-indole] has a melting point of 155 to 156 °C.
`COc1ccc(-c2cncn2CCc2c[nH]c3ccccc23)cc1` [Compound 114, 3-(2-(5-(4-Methoxyphenyl)-1H-imidazol-1-yl)ethyl)-1H-indole] showed a melting point of 169 to 170 °C.
